In patent publication US11498900B2, “Salts of an LSD1 inhibitor” (Incyte Corporation, priority 2015, dated 2022):
Values belong to the molecule of their own block, whether it stands above or below them.

Legend:
Assay type in all cases: physicochemical
[1] = Dynamic vapor sorption (DVS) analysis; conditions: 25° C.; for Hygroscopicity (DVS adsorption/desorption isotherm): bis(4-methylbenzenesulfonate)
Experimental: (§1) Form I was characterized by DVS. The DVS analysis was performed on a TA Instruments Vapor Sorption Analyzer, model VTI-SA^+. The sample was pre-dried on VTI at 50° C. with 0% RH N2 for 1 h. Then the moisture uptake profile was completed in one cycle in 5% RH increments with adsorption from 0% RH to 95% RH followed by desorption in 5% increments from 95% to 5% RH. The equilibration criteria were 0.0050 wt % in 5 minutes with a maximum equilibration time of 180 minutes. All adsorption and desorption were performed at 25° C.
as §1, with “Form HI” for “Form I”, “The” for “The sample was pre-dried on VTI at 50° C. with 0% RH N2 for 1 h. Then the”, “from 35%” for “from 0%”, “were 0.0010” for “were 0.0050”, “C. No pre-drying step was applied for the sample.” for “C.”
Form DH was characterized by DVS. The DVS analysis was performed on a TA Instruments Vapor Sorption Analyzer, model VTI-SA^+. Form DH was generated by pre-drying Form HI on VTI at 40° C. with 0% RH N2 for 3 h. Then the moisture uptake profile was completed in one cycle in 5% RH increments with adsorption from 0% RH to 95% RH followed by desorption in 5% increments from 95% to […]. The equilibration criteria were 0.0010 wt % in 5 minutes with a maximum equilibration time of 180 minutes. All adsorption and desorption were performed at 25° C.

[2] = Solid form conversion on storage or exposure to humidity
Experimental: Form HI of Compound I di-tosylate salt was prepared during the process of drying a wet sample of Compound I di-tosylate salt, Form I, under ambient conditions. […] Form HI can also be generated by purging humidified air (e.g., 60-85% RH) through Form I solid.
Form HIII was prepared by drying Form HI on Vapor Sorption Analyzer (TA Instruments VTI-SA^+) at 40° C. with 0% RH N2 for 3 h and then exposing it to humidity at about 30-50% RH at 25° C. for 1 day.
Form DH was prepared by drying Form HI on Vapor Sorption Analyzer (TA Instruments VTI-SA*) at 25° C. with 0% RH N2 for 2 days.

[3] = Physical stability of Form HI under different humidity conditions
Experimental: Physical stability of Form HI was studied under different humidity conditions. The humidity was controlled at 25° C. using Vapor Sorption Analyzer (TA Instruments, Model VTI-SA*). Approximately 20 mg of Form HI in the sample holder was placed inside the humidity chamber of the instrument and held under constant humidity. A sample in an open glass vial was also set up under ambient conditions. After a certain period of time, the sample was removed and characterized by XRPD, DSC, and TGA. Weight loss by TGA was mostly associated with loss of water. The experimental parameters of XRPD, DSC, and TGA are analogous to those in Example 6 for Form HI.
Form HI was stable for 10 days under humidity conditions of 10-85% RH and was stable for 60 days under ambient conditions. […] The table below provides the data for the physical stability of Form HI at 25° C. (open vial).

[4] = Thermogravimetric analysis (TGA), decomposition; conditions: ramp 20° C. to 600° C. at 20° C./min, nitrogen
Experimental: Form I was characterized by TGA. The TGA was obtained using a TA Instrument Thermogravimetric Analyzer, Model Q500. The general experimental conditions for TGA were: ramp from 20° C. to 600° C. at 20° C./min; nitrogen purge, gas flow at 40 mL/min followed by balance of the purge flow; sample purge flow at 60 mL/min; platinum sample pan. A weight loss of about 3.5% up to 150° C. was observed and believed to be associated with the loss of moisture and residual solvents.

[5] = Concentration of saturated solution in ethanol
Experimental: In one experiment, Form IIIa was prepared by adding 0.4 mL of saturated solution of Form I in ethanol (60 mg/mL) to 3.0 mL of IPAc. The resulting solid was filtered. Form IIIa was also prepared according to the procedure set forth in Example 13 using EtOH/IPAc as a solvent pair.
In one experiment, Form X was prepared by adding 0.3 mL of saturated solution of Form I in ethanol (60 mg/mL) to 2.5 mL of heptane. The resulting solid was filtered. Form X was also prepared according to the procedure set forth in Example 13 using EtOH/heptane as a solvent pair.

[6] = Competitive slurry experiment, relative stability of polymorph forms; conditions: in butanone and butanone/heptane (1:1)
Experimental: In order to evaluate the relative stability relationship of the various Compound I di-tosylate polymorph forms, a competitive slurry experiment with a mixture of Form I, II, III and IIIa through Form XII was conducted in butanone-heptane at 50° C. according to Procedure 1 below and in butanone at 25° C. according to Procedure 2 below. The mixture of thirteen polymorphs was converted to Form I after stirring in butanone/heptane (1:1) at 50° C. for 6-18 hours and after stirring in butanone at 25° C. for 6-18 hours.
Procedure 1 competitive experiment in butanone-heptane at 50° C.:
Procedure 2 competitive experiment in butanone at 25° C.: […]

[7] = high humidity about 60-85% RH, bis(4-methylbenzenesulfonate)
[8] = 0% RH, 2 days, 25° C., open vial
[9] = 5% RH, 7 days, 25° C., open vial
[10] = 10% RH, 10 days, 25° C., open vial
[11] = 30% RH, 5 days, 25° C., open vial
[12] = 75% RH, 10 days, 25° C., open vial
[13] = 85% RH, 10 days, 25° C., open vial
[14] = 90% RH, 4 days, 25° C., open vial

Hygroscopicity (DVS adsorption/desorption isotherm) [1]: hygroscopic | Solid form collected after DVS ([1]; after DVS at 85% RH): Form HI | Solid form change on exposure to humidity ([2]; about 30-50% RH): change to Form HIII | Solid form change on exposure to humidity [2, 7]: Form HI
Compound: COCC1(CN[C@@H]2C[C@H]2c2ccccc2)CCN(CC2(C(=O)O)CCC2)CC1 [Form DH, 1-{[4-(methoxymethyl)-4-({[(1R,2S)-2-phenylcyclopropyl]amino}methyl)piperidin-1-yl]methyl}cyclobutanecarboxylic acid bis(4-methylbenzenesulfonate)]

Hygroscopicity (DVS adsorption/desorption isotherm) [1]: slightly hygroscopic | % Wt Loss by TGA (25-120° C.) [3, 8]: 2.30% | DSC (° C.) (Peak Temperature) [3, 8]: 97.5 °C | XRPD (solid form) [3, 8]: Form DH | % Wt Loss by TGA (25-120° C.) [3, 9]: 2.93% | DSC (° C.) (Peak Temperature) [3, 9]: 81.2 °C | XRPD (solid form) [3, 9]: Form HI | % Wt Loss by TGA (25-120° C.) [3, 10]: 5.05% | DSC (° C.) (Peak Temperature) [3, 10]: 82.4 °C | XRPD (solid form) [3, 10]: Form HI | Physical stability ([3]; 10-85% RH, 10 days, 25° C.): stable | % Wt Loss by TGA (25-120° C.) [3, 11]: 5.38% | DSC (° C.) (Peak Temperature) [3, 11]: 80.7 °C | XRPD (solid form) [3, 11]: Form HI | % Wt Loss by TGA (25-120° C.) [3, 12]: 5.30% | DSC (° C.) (Peak Temperature) [3, 12]: 79.8 °C | XRPD (solid form) [3, 12]: Form HI | % Wt Loss by TGA (25-120° C.) [3, 13]: 5.35% | DSC (° C.) (Peak Temperature) [3, 13]: 79.9 °C | XRPD (solid form) [3, 13]: Form HI | Physical stability ([3]; 90% RH, 25° C.): change to Form HII | % Wt Loss by TGA (25-120° C.) [3, 14]: 6.04% | DSC (° C.) (Peak Temperature) [3, 14]: 80.0 °C | XRPD (solid form) ([3]; 90% RH, 4 days, 25° C., open vial, cell wraps over r12-r14: Form HI + Form HII (minor)): Form HI + | % Wt Loss by TGA (25-120° C.) ([3]; 90% RH, 10 days, 25° C., open vial): 9.4% | XRPD (solid form) ([3]; 90% RH, 10 days, 25° C., open vial, cell wraps over r15-r16: Form HI + Form HII): Form HI + | % Wt Loss by TGA (25-120° C.) ([3]; Ambient, 60 days, open vial): 4.77% | DSC (° C.) (Peak Temperature) ([3]; Ambient, 60 days, open vial): 79.8 °C | XRPD (solid form) ([3]; Ambient, 60 days, open vial): Form HI | Physical stability ([3]; ambient conditions, 60 days, open vial): stable | Physical stability ([3]; below 10% RH, 25° C.): de-hydrated
Compound: COCC1(CN[C@@H]2C[C@H]2c2ccccc2)CCN(CC2(C(=O)O)CCC2)CC1 [Form HI, 1-{[4-(methoxymethyl)-4-({[(1R,2S)-2-phenylcyclopropyl]amino}methyl)piperidin-1-yl]methyl}cyclobutanecarboxylic acid bis(4-methylbenzenesulfonate)]

Solid form change on exposure to humidity [2, 7]: change to Form HI
Compound: COCC1(CN[C@@H]2C[C@H]2c2ccccc2)CCN(CC2(C(=O)O)CCC2)CC1 [Form HIII, 1-{[4-(methoxymethyl)-4-({[(1R,2S)-2-phenylcyclopropyl]amino}methyl)piperidin-1-yl]methyl}cyclobutanecarboxylic acid bis(4-methylbenzenesulfonate)]

Temperature after which significant decomposition starts (TGA) [4]: > 200 °C | Hygroscopicity (DVS adsorption/desorption isotherm) [1]: hygroscopic | Concentration of saturated solution [5]: 60000 µg/mL | Solid form change ([2]; drying of wet sample under ambient conditions, atmospheric moisture): changed to crystalline Form HI | Solid form change on storage ([2]; storage 25° C./60% RH): converted to Form HI | Solid form change on storage ([2]; storage 40° C./75% RH): converted to Form HI | Relative stability of polymorphic forms [6]: most stable polymorphic form
Compound: COCC1(CN[C@@H]2C[C@H]2c2ccccc2)CCN(CC2(C(=O)O)CCC2)CC1 [Form I, 1-{[4-(methoxymethyl)-4-({[(1R,2S)-2-phenylcyclopropyl]amino}methyl)piperidin-1-yl]methyl}cyclobutanecarboxylic acid bis(4-methylbenzenesulfonate)]
